Here are results for five molecules from paper PMC8223498 (Journal of Fluorine Chemistry, 2021).

What all share (assay type): biochemical
Test [1] addresses T1, human N-terminally His6-tagged AspH315–758 (Homo sapiens, UniProt Q12797).
T1 sequence (Q12797 315-758): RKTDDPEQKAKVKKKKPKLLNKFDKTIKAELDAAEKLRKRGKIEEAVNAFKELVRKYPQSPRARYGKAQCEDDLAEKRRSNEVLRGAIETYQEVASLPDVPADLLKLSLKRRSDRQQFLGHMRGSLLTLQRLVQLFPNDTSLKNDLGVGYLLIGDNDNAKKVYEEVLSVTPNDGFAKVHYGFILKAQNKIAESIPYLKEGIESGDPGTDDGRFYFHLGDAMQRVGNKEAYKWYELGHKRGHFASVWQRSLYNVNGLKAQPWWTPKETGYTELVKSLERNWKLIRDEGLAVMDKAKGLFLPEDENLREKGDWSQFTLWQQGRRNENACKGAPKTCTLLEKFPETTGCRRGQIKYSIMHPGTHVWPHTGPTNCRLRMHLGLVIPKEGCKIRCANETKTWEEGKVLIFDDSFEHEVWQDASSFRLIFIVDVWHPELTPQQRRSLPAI
Description: SPE-MS inhibition assay, AspH (peptide hydroxylation). To be noted: 0.05 μM His6-AspH315–758, 1.0 μM hFX-CP101–119 peptide, n = 2, mean ± SD. As to the method: (§1) KDM4E was used as a representative JmjC KDM; it catalyzes the demethylation of histone 3 (H3) N^ε-di- and trimethylated Lys9 (H3K9me3/me2), [11], [12].
(§2) 2OG oxygenases were produced and purified as described in the cited literature, the peptide substrate for AspH was synthesized according to the cited literature while the peptide substrates for FIH and KDM4E were obtained from GL Biochem (Shanghai) Ltd (Shanghai, China). All peptide were prepared with C-terminal amides.

Test [2] deals with T2, N-terminally His6-tagged FIH (Homo sapiens, UniProt Q9NWT6).
T2 construct: His6 (N); made in house
T2 sequence (Q9NWT6 whole entry): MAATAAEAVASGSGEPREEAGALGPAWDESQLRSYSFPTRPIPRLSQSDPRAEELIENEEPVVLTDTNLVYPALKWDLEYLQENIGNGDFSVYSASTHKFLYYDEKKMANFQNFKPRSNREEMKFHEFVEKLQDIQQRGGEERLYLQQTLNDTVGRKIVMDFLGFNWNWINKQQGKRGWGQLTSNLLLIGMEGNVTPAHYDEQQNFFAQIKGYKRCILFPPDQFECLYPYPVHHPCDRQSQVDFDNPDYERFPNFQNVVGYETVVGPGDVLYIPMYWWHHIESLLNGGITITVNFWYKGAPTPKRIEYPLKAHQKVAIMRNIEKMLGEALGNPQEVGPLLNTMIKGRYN
Description: SPE-MS inhibition assay, FIH (peptide hydroxylation). The note with it: 5.0 μM HIF-1α CAD (788–822), n = 2, mean ± SD, inactive = no inhibition at 100 – 0.002 μM. How it is done: as §1, §2

Another test addresses T3, KDM4E (Homo sapiens, UniProt B2RXH2).
T3 sequence (B2RXH2 1-506): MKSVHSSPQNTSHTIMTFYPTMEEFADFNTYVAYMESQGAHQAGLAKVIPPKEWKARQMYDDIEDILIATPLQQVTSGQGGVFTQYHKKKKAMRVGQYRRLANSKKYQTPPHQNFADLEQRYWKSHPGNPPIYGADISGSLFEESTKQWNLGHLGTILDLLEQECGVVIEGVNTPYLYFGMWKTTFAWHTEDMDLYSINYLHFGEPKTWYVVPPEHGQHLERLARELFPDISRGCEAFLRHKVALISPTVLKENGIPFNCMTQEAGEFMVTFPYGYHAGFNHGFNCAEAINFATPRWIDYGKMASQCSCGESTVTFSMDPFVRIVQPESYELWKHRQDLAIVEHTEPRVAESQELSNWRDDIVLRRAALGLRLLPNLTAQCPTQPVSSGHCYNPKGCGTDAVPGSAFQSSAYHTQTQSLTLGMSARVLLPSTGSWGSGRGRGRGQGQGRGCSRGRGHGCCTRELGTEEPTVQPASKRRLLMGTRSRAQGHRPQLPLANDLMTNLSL
Description: SPE-MS inhibition assay, KDM4E (peptide demethylation). The note with it: 10.0 μM H3_1–15K9me3, n = 2, mean ± SD, inactive = no inhibition at 100 – 0.002 μM. How it is done:
as §1, §2

Test [3] deals with recombinant human N-terminally His6-tagged RIOX2_26–465 (Homo sapiens, UniProt Q8IUF8). As to the kind of experiment: SPE-MS inhibition assay, RIOX2 (peptide hydroxylation). The note with it: n = 2, mean ± SD, inactive = no inhibition at 100 – 0.002 μM; for IC50: 0.15 μM His6-RIOX2_26–465, 5.0 μM RPL27A31–49 peptide; for IC50 RIOX2: […] His6-RIOX2_26–465, 5.0 μM RPL27A31–49 peptide.
Chain of recombinant human N-terminally His6-tagged RIOX2_26–465 (Q8IUF8 26-465): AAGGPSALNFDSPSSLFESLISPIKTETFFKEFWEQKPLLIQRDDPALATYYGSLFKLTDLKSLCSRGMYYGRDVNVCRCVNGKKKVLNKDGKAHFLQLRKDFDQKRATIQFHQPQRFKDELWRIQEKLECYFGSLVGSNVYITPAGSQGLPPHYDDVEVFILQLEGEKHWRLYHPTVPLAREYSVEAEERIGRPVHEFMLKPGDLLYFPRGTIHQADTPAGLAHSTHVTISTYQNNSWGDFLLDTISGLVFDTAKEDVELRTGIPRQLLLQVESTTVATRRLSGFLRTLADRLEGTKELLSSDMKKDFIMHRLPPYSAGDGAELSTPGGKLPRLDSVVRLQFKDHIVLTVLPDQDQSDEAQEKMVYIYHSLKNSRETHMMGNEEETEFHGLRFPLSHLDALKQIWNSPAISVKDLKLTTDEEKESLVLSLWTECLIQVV

As for `O=C(O)c1ccnc(C(=O)O)c1` [2,4-PDCA, pyridine-2,4-dicarboxylate, reference compound], the IC50 – broadly, the concentration needed to halve the response being measured – in test [1] was ~0.03 µM.

As to `O=C(O)c1ccnc(C(=O)O)c1F` [compound 7, 3-Fluoropyridine-2,4-dicarboxylic acid], the IC50 is 0.11 ± 0.01 µM in test [1], > 50 µM in test [2], 1.3 ± 0.2 µM at KDM4E and > 50 µM in test [3].

Take `O=C(O)c1cc(C(=O)O)c(F)cn1` [compound 8, 5-Fluoropyridine-2,4-dicarboxylic acid]: the IC50 was 0.05 ± 0.01 µM in test [1], > 50 µM in test [2], 1.6 ± 0.3 µM against KDM4E and > 50 µM in test [3].

Take `O=C(O)c1ccnc(C(=O)O)c1C(F)(F)F` [compound 13, 3-Trifluoromethylpyridine-2,4-dicarboxylic acid]: the IC50 in test [1] was > 50 µM. Moreover, the “IC50 FIH” value in test [2] is “^d)inactive”. For the same molecule, the “IC50 KDM4E” value on KDM4E is “^d)inactive”. Also, in test [3], the “IC50 RIOX2” value is “^d)inactive”.

Molecule `O=C(O)c1cc(C(=O)O)c(C(F)(F)F)cn1` [compound 14, 5-Trifluoromethylpyridine-2,4-dicarboxylic acid] returned an IC50 in test [1] of 4.2 ± 1 µM. In addition, the “IC50 FIH” value in test [2] is “^d)inactive”. The “IC50 KDM4E” value on KDM4E was “^d)inactive”. In addition, the “IC50 RIOX2” value in test [3] is “^d)inactive”.
